Data reported in paper PMC9098890 (European Journal of Medicinal Chemistry, 2022).

Tests used:
SARS-CoV-2 (WIV04) = assay: Anti-viral activity assay; format: cell-based
SARS-CoV-2 3CL^Pro = SARS-CoV-2 3CL^Pro (Severe acute respiratory syndrome coronavirus 2, UniProt P0DTD1); assay: Enzymatic inhibitory activity assay; format: biochemical; settings: IC50 compared with positive control 1

Row | Compound | reduction of SARS-CoV-2 viral RNA (SARS-CoV-2 (WIV04)) | also measured
1 | CC(C)C[C@H](NC(=O)[C@@H](NC(=O)/C=C/c1ccccc1)C(C)C)C(=O)N[C@H](C=O)C[C@@H]1CCCNC1=O [Compound 14c, (S)-2-((S)-2-cinnamamido-3-methylbutanamido)-4-methyl-N-((S)-1-oxo-3-((S)-2-oxopiperidin-3-yl)propan-2-yl)pentanamide] | – | antiviral activity against SARS-CoV-2 (in words) (SARS-CoV-2 (WIV04)): no antiviral activity
2 | CC(C)C[C@H](NC(=O)[C@@H](NC(=O)c1ccc(Cl)cc1)C(C)C)C(=O)N[C@H](C=O)C[C@@H]1CCCNC1=O [Compound 17w, 4-chloro-N-((S)-3-methyl-1-(((S)-4-methyl-1-oxo-1-(((S)-1-oxo-3-((S)-2-oxopiperidin-3-yl)propan-2-yl)amino)pentan-2-yl)amino)-1-oxobutan-2-yl)benzamide] | – | increased inhibitory potency versus positive control 1 (SARS-CoV-2 3CL^Pro): 4 fold
3 | CC(C)C[C@H](NC(=O)[C@H](CC1CCCCC1)NC(=O)/C=C/c1ccccc1)C(=O)N[C@H](C=O)C[C@@H]1CCCNC1=O [Compound 14d, (S)-2-((S)-2-cinnamamido-3-cyclohexylpropanamido)-4-methyl-N-((S)-1-oxo-3-((S)-2-oxopiperidin-3-yl)propan-2-yl)pentanamide] | more than 2 logs | –
4 | CC(C)C[C@H](NC(=O)[C@@H](NC(=O)c1ccc2ccccc2c1)C(C)C)C(=O)N[C@H](C=O)C[C@@H]1CCCNC1=O [Compound 17i, N-((S)-3-methyl-1-(((S)-4-methyl-1-oxo-1-(((S)-1-oxo-3-((S)-2-oxopiperidin-3-yl)propan-2-yl)amino)pentan-2-yl)amino)-1-oxobutan-2-yl)-2-naphthamide] | more than 2 logs | –
5 | CC(C)C[C@H](NC(=O)/C=C/c1ccccc1)C(=O)N[C@H](C=O)C[C@@H]1CCCNC1=O [Compound 10g, (S)-2-cinnamamido-4-methyl-N-((S)-1-oxo-3-((S)-2-oxopiperidin-3-yl)propan-2-yl)pentanamide] | more than 2 logs | –
6 | CCCC[C@H](NC(=O)/C=C/c1ccccc1)C(=O)N[C@H](C=O)C[C@@H]1CCNC1=O [Compound 10c, (S)-2-cinnamamido-N-((S)-1-oxo-3-((S)-2-oxopyrrolidin-3-yl)propan-2-yl)hexanamide] | more than 2 logs | –
7 | CC(C)(C)[C@H](NC(=O)/C=C/c1ccccc1)C(=O)N[C@H](C=O)C[C@@H]1CCCNC1=O [Compound 10h, (S)-2-cinnamamido-3,3-dimethyl-N-((S)-1-oxo-3-((S)-2-oxopiperidin-3-yl)propan-2-yl)butanamide] | more than 2 logs | –
8 | CC(C)C[C@H](NC(=O)/C=C/c1ccccc1)C(=O)N[C@H](C=O)C[C@@H]1CCNC1=O [Compound 10b, (S)-2-cinnamamido-4-methyl-N-((S)-1-oxo-3-((S)-2-oxopyrrolidin-3-yl)propan-2-yl)pentanamide] | more than 2 logs | –
